Paper PMC7552917, “Systematic exploration of different E3 ubiquitin ligases: an approach towards potent and selective CDK6 degraders” (Chemical Science, 2020)
Where two headings read alike, the source gives them in different places.

Columns and labels:
MDA-MB-231 cells [1] = experiment: Cell migration (wound-healing) assay; format: cell-based, human; conditions: 0.1 μM, 24 h post-scratch
Procedure: In total 800.000 MDA-MB-231 breast cancer cells were seeded on uncoated 24-well plates (Starlab).
After 24 h DMEM medium (Pan Biotech) was removed, wells were washed twice with PBS and incubated with 0.1 µM palbociclib, 0.1 µM 34, 0.1 µM VH298 or DMSO in fresh FCS-free medium.
After 24 h of incubation, a scratch was conducted with a 100 µL pipette tip (Starlab), medium was removed, wells were washed twice with PBS and again incubated with fresh FCS-free medium containing the compounds at the aforementioned concentrations. Wound healing was observed microscopically for 24 h with 10-fold magnification (Axiovert 100, Zeiss, Germany). Migration speed was quantified according to the reduced scratch wound area over time.
(§1) Dose response curves were modeled and plotted by using GraphPad Prism software (GraphPad Software). Statistical analysis was performed using GraphPad Prism software (GraphPad Software).
(§2) Variance of biological replicates is represented as the standard error of the mean (SEM) or as the […]

CDK4 = target: T1, CDK4 (Homo sapiens, UniProt P11802); experiment: CDK4 degradation, western blot of MM.1S cells; format: cell-based; conditions: 16 h; for remaining activity at 0.1 µM: MM1.S, read-out: D CDK4: remaining CDK4 levels
T1 construct: Percentage values are normalized to DMSO-treated MM.1S cells and the respective loading controls; endogenous in cells; host or cells: MM.1S (human multiple myeloma)
T1 sequence (P11802 whole entry): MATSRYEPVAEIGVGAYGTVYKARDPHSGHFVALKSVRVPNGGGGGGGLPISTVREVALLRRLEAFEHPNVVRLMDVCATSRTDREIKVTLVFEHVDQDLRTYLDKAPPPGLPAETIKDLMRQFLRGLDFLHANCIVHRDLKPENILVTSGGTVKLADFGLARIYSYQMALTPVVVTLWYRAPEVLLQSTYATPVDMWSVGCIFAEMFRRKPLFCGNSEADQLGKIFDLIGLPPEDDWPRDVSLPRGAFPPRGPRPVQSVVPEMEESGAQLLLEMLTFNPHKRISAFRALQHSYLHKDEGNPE
Excerpt: (§3) We determined the concentration of both kinases and CRBN, the latter in order to control the expression of the corresponding ligase. Since IMiDs, such as pomalidomide, cause the degradation of the lymphoid transcription factors Ikaros (IKZF1) and Aiolos (IKZF3) through the involvement of CRBN,[53],[54] this undesired effect was inspected. […] As further characteristics of CDK4/6d, the desired selectivity of CDK6 over CDK4 degradation and the unwanted influence on the IKZF1 concentration were determined. […] Next, we determined the concentration- and time-dependent activity of 11 (Fig. S2, ESI ^†).
(§4) Multiple myeloma, leukaemia, and murine cell lines:
(§5) After respective designated treatments, cells were washed with 1× PBS and lysed in IP lysis buffer (Pierce) containing HALT protease and phosphatase inhibitor cocktail (Thermo Scientific). Sodium dodecyl sulfate-polyacrylamide gel electrophoresis (SDS-PAGE) was performed with 5–20 µg of protein loaded per sample. Gel electrophoresis was carried out at a constant voltage. Proteins were transferred onto Immobilon-P transfer membranes (Millipore). Membranes were blocked with 5% milk in Tris Buffered Saline with 0.05% Tween 20 (TBS-T) followed by overnight incubation at 4 °C with shaking in primary antibodies diluted in 5% BSA in TBS-T. After incubation with respective secondary HRP-conjugated antibodies diluted in 5% milk in TBST, detection of proteins was performed using either WesternBright ECL HRP substrate or WesternBright Sirius HRP substrate (Advansta). Chemiluminescence was detected with ChemiDoc™ XRS+ System (Bio-Rad). For further detection of other proteins on the same membrane, membranes were subjected to incubation in Restore Western Blot Stripping Buffer, followed by re-blocking, and further probing of proteins was […]

CDK6 = target: T2, CDK6 (Homo sapiens, UniProt Q00534); experiment: CDK6 degradation, western blot of MM.1S cells; format: cell-based; conditions: for remaining activity at 0.1 µM / remaining activity at 1 µM: read-out: D CDK6: remaining CDK6 levels; for Time CDK6 degradation persists (CDK6 protein below 50%) after drug washout: 0.1 μM for 16 h, then washout with PBS; for Persistence of CDK6 degradation after single drug exposure (long-term treatment): no washout
T2 construct: Percentage values are normalized to DMSO-treated MM.1S cells and the respective loading controls; endogenous in cells; host or cells: MM.1S (human multiple myeloma)
T2 sequence (Q00534 whole entry): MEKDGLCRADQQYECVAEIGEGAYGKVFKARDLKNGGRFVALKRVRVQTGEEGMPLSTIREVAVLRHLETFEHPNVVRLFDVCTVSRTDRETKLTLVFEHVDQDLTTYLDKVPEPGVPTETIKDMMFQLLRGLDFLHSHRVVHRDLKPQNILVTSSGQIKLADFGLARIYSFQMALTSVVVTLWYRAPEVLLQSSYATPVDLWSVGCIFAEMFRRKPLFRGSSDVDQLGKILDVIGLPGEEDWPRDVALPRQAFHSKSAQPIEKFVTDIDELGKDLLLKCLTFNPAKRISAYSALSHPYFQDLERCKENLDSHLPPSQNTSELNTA
Excerpt: as §3, §4, §5

MDA-MB-231 cells [2] = experiment: Cell viability assay (CellTiter-Glo), MDA-MB-231 breast cancer cells; format: cell-based, human; conditions: 96 h
Procedure: Breast cancer cell lines:
To access the compound effect on cell viability, cells were plated in 384-well tissue culture-treated plates (Greiner Bio One). Twenty-four hours later, tested compounds were added into culture to the desired concentrations. Cell viability was measured by using CellTiter-Glo® Luminescent Cell Viability Assay (Promega) at day 4 or day 7 post-treatment and normalized by non-treated controls. […]
as §1, §2

[3] = test system: MM.1S, LP-1, AMO-1, MOLM-13, HEL, KG-1, K562, Nalm-6; experiment: Cell viability assay (CellTiter-Glo), multiple myeloma and leukemia cell lines; format: cell-based, human; conditions: 96 h, 0.1 or 1 μM; for Effect on cell proliferation: MM.1S, LP-1, AMO-1, MOLM-13, HEL, KG-1, K562, Nalm-6
Procedure: as §4
(§6) Cells were seeded in 96-well plates with media containing indicated concentrations of respective compounds and plates were incubated at 37 °C for 96 hours. Readout was performed with CellTiter-Glo® Luminescent Cell Viability Assay (Promega) according to the manufacturer’s protocol and luminescence was measured with POLARStar Omega plate reader (BMG LabTech). All results were normalized to non-treated conditions and data represent mean ±SD of biological triplicates. […]
as §1, §2

[4] = Susceptibility to hydrolysis in buffer, LC/MS; format: physicochemical; conditions: buffer pH 1, 24 h, 37 °C
Procedure: Next, we investigated the persistence of CDK6 degradation after single drug exposure. […] The differences were even more pronounced when conducting a drug washout-step, showing that while BSJ-03-123 kept CDK6 protein below 50% for a maximum of 6 h, CDK6 degradation mediated by PROTACs 27 and 34 was more persistent and stable for up to 72 h (Fig. 4E and S10, ESI ^†). […] Since these degraders mainly differ in the ligase-binding part, we hypothesized that the deviations in the long-term experiments (Fig. 5A) are due to chemical inactivation of the CRBN ligand. We then tested compounds 27, 34 (VHL-based) and BSJ-03-123 (8, CRBN-based) for susceptibility to hydrolysis. These PROTACs were incubated in two different buffers for 24 h at 37 °C and aliquots were analysed by LC/MS.
Fig. 5 (A) Quantification of long-term treatment experiments (see Fig. S9, ESI ^†) and (B) drug stability data at pH 1 and pH 7.4. Acetonitrile solutions of the PROTACs were mixed with two different buffers and incubated for 24 hours at 37 °C. Subsequently, aliquots were analysed by LC/MS and normalized to acetonitrile solutions.

HEL cells = experiment: Cell viability assay (CellTiter-Glo), HEL cells; format: cell-based; conditions: Homo sapiens, 96 h
Procedure: as §4, §6, §1, §2

[5] = elog D7.4 by chromatographic (HPLC) method; format: physicochemical; conditions: Polaris C18-A column, pH 7.4, read-out: elog D7.4 (experimental distribution coefficient at pH 7.4)
Procedure: Supplementary Information: Physical Chemistry
N. Molecular Descriptor Calculation […]
O. Physicochemical Measurements
The determination of the elog D7.4 values was performed by a chromatographic method according to […]
The column was a Polaris C18-A column (2 mm I.D., 50 mm length, 3 μm particle size) from Agilent Technologies. A linear mobile phase gradient was applied with […] TRIS buffer adjusted to pH 7.4 and MeCN. Therefore, the gradient was run from 5% […]
between the runs with a constant flow-rate of 0.8 ml/min and a temperature of 25 °C. The output wavelength of the detector was set to 269.5 nm. In order to calibrate the log D7.4 to the retention time, 6 different drugs with known log D7.4 were dissolved in DMSO and 10 µl were injected […]
Approximately 1 mg of the samples was dissolved in DMSO and 5 µl were injected. Analyses were conducted in duplicates. Subsequently, the mean retention times of the analytes were taken to calculate their log D7.4 values with aid of the calibration line.

[6] = 0.1 μM, MM.1S cells, normalized to DMSO (100%)
[7] = MM1.S, 0.1 μM, 16 h, MM.1S cells, normalized to DMSO (100%)
[8] = MM1.S, 1 μM, 16 h, MM.1S cells, normalized to DMSO (100%)

| remaining activity at 0.1 µM (CDK4; [6]) [%] | Stability to hydrolysis at pH 1 [4] | Selectivity ratio D CDK4/D CDK6 for the degradation of CDK6 over CDK4 (CDK6; 0.1 μM, 16 h, MM.1S cells) | remaining activity at 0.1 µM (CDK6; [7]) [%] | remaining activity at 1 µM (CDK6; [8]) [%] | Time CDK6 degradation persists (CDK6 protein below 50%) after drug washout (CDK6; MM.1S cells) | chromatographic logD [5] | DC50 (CDK4; MM.1S cells) [nM] | Dmax (CDK6; MM1.S, MM.1S cells, 16 h, at a concentration as low as 100 nM, read-out: Dmax: maximum of CDK6 degradation) [%] | DC50 (CDK6; MM.1S cells, 16 h, 1 μM value excluded (hook effect)) [nM] | IC50 (MDA-MB-231 cells [2]; Homo sapiens) [nM] | Structure (SMILES) | Reduction of wound healing (MDA-MB-231 cells [1]) | remaining activity at 0.1 µM (CDK4) [%] | remaining activity at 0.1 µM (CDK6; MM1.S, 16 h) [%] | Inhibitory activity on cell viability relative to palbociclib (MDA-MB-231 cells [2]) | Effect on cell proliferation [3] | IC50 (HEL cells) [nM] | Persistence of CDK6 degradation after single drug exposure (long-term treatment) (CDK6; MM.1S cells) | Cell viability compared with palbociclib, VHL-series PROTACs and IAP ligand 5 ([3]; MM.1S and Nalm-6 cells) | remaining activity at 1 µM (CDK6; MM1.S, 16 h) [%] |
| --- | --- | --- | --- | --- | --- | --- | --- | --- | --- | --- | --- | --- | --- | --- | --- | --- | --- | --- | --- | --- |
|  |  |  |  |  |  |  |  |  |  |  | Cc1ncsc1-c1ccc(CNC(=O)[C@@H]2C[C@@H](O)CN2C(=O)[C@@H](NC(=O)C2(C#N)CC2)C(C)(C)C)cc1 [4 (VH298), VH298, reference compound] | did not affect the ability of MDA-MB-231 cells to migrate | > 95 | > 95 |  |  |  |  |  |  |
| 33 | stable | 19 | 1.7 | 15 | up to 72 h | 2.9 |  |  |  |  | CC(=O)c1c(C)c2cnc(Nc3ccc(N4CCN(CCOCCOCCOCC(=O)N[C@H](C(=O)N5C[C@H](O)C[C@H]5C(=O)N[C@@H](C)c5ccc(-c6scnc6C)cc5)C(C)(C)C)CC4)cn3)nc2n(C2CCCC2)c1=O [27 (CST620)] |  |  |  | inhibitory activity comparable to palbociclib | inhibited cell proliferation | 1540 | satisfactory CDK6 level suppression even after 96 h |  |  |
| 44 | stable | 31 | 1.4 | 8.5 | up to 72 h | 3.1 | 20 | > 95 | 5.1 |  | CC(=O)c1c(C)c2cnc(Nc3ccc(N4CCN(CCOCCOCCOc5cc(-c6scnc6C)ccc5CNC(=O)[C@@H]5C[C@@H](O)CN5C(=O)[C@@H](NC(=O)C5(F)CC5)C(C)(C)C)CC4)cn3)nc2n(C2CCCC2)c1=O [34 (CST651)] | 29% |  |  | inhibitory activity comparable to palbociclib | inhibited cell proliferation | 450 | satisfactory CDK6 level suppression even after 96 h |  |  |
|  |  |  |  |  |  |  |  |  |  | 260 | CC(=O)c1c(C)c2cnc(Nc3ccc(N4CCNCC4)cn3)nc2n(C2CCCC2)c1=O [palbociclib, reference compound] | 17% |  |  |  |  | 4160 |  |  |  |

| Structure (SMILES) | remaining activity at 0.1 µM (CDK4; [6]) [%] | Stability to hydrolysis at pH 1 [4] | Selectivity ratio D CDK4/D CDK6 for the degradation of CDK6 over CDK4 (CDK6; 0.1 μM, 16 h, MM.1S cells) | remaining activity at 0.1 µM (CDK6; [7]) [%] | remaining activity at 1 µM (CDK6; [8]) [%] | Time CDK6 degradation persists (CDK6 protein below 50%) after drug washout (CDK6; MM.1S cells) | chromatographic logD [5] | DC50 (CDK4; MM.1S cells) [nM] | Dmax (CDK6; MM1.S, MM.1S cells, 16 h, at a concentration as low as 100 nM, read-out: Dmax: maximum of CDK6 degradation) [%] | DC50 (CDK6; MM.1S cells, 16 h, 1 μM value excluded (hook effect)) [nM] | IC50 (MDA-MB-231 cells [2]; Homo sapiens) [nM] | Reduction of wound healing (MDA-MB-231 cells [1]) | remaining activity at 0.1 µM (CDK4) [%] | remaining activity at 0.1 µM (CDK6; MM1.S, 16 h) [%] | Inhibitory activity on cell viability relative to palbociclib (MDA-MB-231 cells [2]) | Effect on cell proliferation [3] | IC50 (HEL cells) [nM] | Persistence of CDK6 degradation after single drug exposure (long-term treatment) (CDK6; MM.1S cells) | Cell viability compared with palbociclib, VHL-series PROTACs and IAP ligand 5 ([3]; MM.1S and Nalm-6 cells) | remaining activity at 1 µM (CDK6; MM1.S, 16 h) [%] |
| --- | --- | --- | --- | --- | --- | --- | --- | --- | --- | --- | --- | --- | --- | --- | --- | --- | --- | --- | --- | --- |
| CN[C@@H](C)C(=O)N[C@H](C(=O)N1C[C@@H](Oc2cccc(OCCOCCOCCOCCN3CCN(c4ccc(Nc5ncc6c(C)c(C(C)=O)c(=O)n(C7CCCC7)c6n5)nc4)CC3)c2)C[C@H]1C(=O)N[C@@H]1CCCc2ccccc21)C1CCCCC1 [compound 35] |  |  |  |  |  |  | 4.3 |  |  |  |  |  | 77 | 75 |  |  |  |  | more strongly impaired | 18 |
